Values of other authors in patent EP0859828B2, “DELIVERY SYSTEMS” (THE PROCTER & GAMBLE COMPANY, priority 1995, dated 1997).

Conditions: 25°C; cobalt pentaamine catalysts complexed with the named ligand

Molecule | base hydrolysis rates (kOH)
CC(=O)O [acetate] | 0.00096 M⁻¹ s⁻¹
oxalate | 0.00025 M⁻¹ s⁻¹
